Test results reported in the NIST ThermoML archive (doi:10.1021/acs.jced.8b01144).
Numbers after ± are expanded uncertainties.

Conditions: Crystal; DSC

**Q.** For `NC(=O)c1ccc(N)cc1` [4-aminobenzamide], which Triple point temperature is on record?
**A.** 453.4 ± 1.2 K
